According to patent US4352792A, “3-Alkoxyflavone antiviral agents” (priority 1979, dated 1982):
Converted amounts (≈) assume the structure as drawn. Like-named read-outs stand apart in the source and are kept apart here.

Columns and labels:
rhinovirus type 2 = assay: in vitro antiviral spectrum; assay type: cell-based; conditions: Enterovirus; rhinovirus type 2; read-out: Minimum inhibitory concentration
rhinovirus type 16 = assay: in vitro antiviral spectrum; assay type: cell-based; conditions: Enterovirus; rhinovirus type 16; read-out: Minimum inhibitory concentration
rhinovirus type 30 = assay: in vitro antiviral spectrum; assay type: cell-based; conditions: Enterovirus; rhinovirus type 30; read-out: Minimum inhibitory concentration
rhinovirus type 55 = assay: in vitro antiviral spectrum; assay type: cell-based; conditions: Enterovirus; rhinovirus type 55; read-out: Minimum inhibitory concentration
ECHO virus type 11 = assay: in vitro antiviral spectrum; assay type: cell-based; conditions: read-out: Minimum inhibitory concentration
rhinovirus type 1A = assay: in vitro antiviral spectrum; assay type: cell-based; conditions: Enterovirus; rhinovirus type 1A; read-out: Minimum inhibitory concentration
poliovirus type 1 = assay: microbe, parasite or virus in culture; assay type: cell-based; conditions: Enterovirus C, read-out: Minimum inhibitory concentration
rhinovirus type 53 = assay: in vitro antiviral spectrum; assay type: cell-based; conditions: Enterovirus; rhinovirus type 53; read-out: Minimum inhibitory concentration
rhinovirus type 14 = assay: in vitro antiviral spectrum; assay type: cell-based; conditions: Enterovirus; rhinovirus type 14; read-out: Minimum inhibitory concentration
Coxsackie virus B1 [1] = assay: Inhibition of viral cytopathogenic effect in HeLa cells (Coxsackie virus B1); assay type: cell-based
rhinovirus type 26 = assay: in vitro antiviral spectrum; assay type: cell-based; conditions: Enterovirus; rhinovirus type 26; read-out: Minimum inhibitory concentration
rhinovirus type 3 = assay: in vitro antiviral spectrum; assay type: cell-based; conditions: Enterovirus; rhinovirus type 3; read-out: Minimum inhibitory concentration
Coxsackie virus B1 [2] = assay: Anti-Coxsackie virus activity, lethal infection in mice; conditions: Mus musculus, 504 h, read-out: Survival
ECHO virus type 9 = assay: in vitro antiviral spectrum; assay type: cell-based; conditions: read-out: Minimum inhibitory concentration
rhinovirus type 13 = assay: in vitro antiviral spectrum; assay type: cell-based; conditions: Enterovirus; rhinovirus type 13; read-out: Minimum inhibitory concentration
ECHO virus type 19 = assay: in vitro antiviral spectrum; assay type: cell-based; conditions: read-out: Minimum inhibitory concentration
ECHO virus type 12 = assay: in vitro antiviral spectrum; assay type: cell-based; conditions: read-out: Minimum inhibitory concentration
rhinovirus type 34 = assay: in vitro antiviral spectrum; assay type: cell-based; conditions: Enterovirus; rhinovirus type 34; read-out: Minimum inhibitory concentration
rhinovirus type 39 = assay: in vitro antiviral spectrum; assay type: cell-based; conditions: Enterovirus; rhinovirus type 39; read-out: Minimum inhibitory concentration
rhinovirus type 21 = assay: in vitro antiviral spectrum; assay type: cell-based; conditions: Enterovirus; rhinovirus type 21; read-out: Minimum inhibitory concentration
rhinovirus type 44 = assay: in vitro antiviral spectrum; assay type: cell-based; conditions: Enterovirus; rhinovirus type 44; read-out: Minimum inhibitory concentration
rhinovirus HGP = assay: Inhibition of viral cytopathogenic effect in HeLa cells (rhinovirus HGP); assay type: cell-based; conditions: Enterovirus, HeLa, 48 h, read-out: IC50 rhinovirus HGP
rhinovirus type 47 = assay: in vitro antiviral spectrum; assay type: cell-based; conditions: Enterovirus; rhinovirus type 47; read-out: Minimum inhibitory concentration
rhinovirus type 4 = assay: in vitro antiviral spectrum; assay type: cell-based; conditions: Enterovirus; rhinovirus type 4; read-out: Minimum inhibitory concentration
[3] = tested on: rhinoviruses HGP, 1A and Coxsackie virus B1; assay: Inhibition of viral replication in HeLa cells; assay type: cell-based; conditions: concentrations of 0.5 to 2 μg/ml, HeLa cells (FIG. 1)
Coxsackie virus A21 = assay: in vitro antiviral spectrum; assay type: cell-based; conditions: read-out: Minimum inhibitory concentration
rhinovirus type 32 = assay: in vitro antiviral spectrum; assay type: cell-based; conditions: Enterovirus; rhinovirus type 32; read-out: Minimum inhibitory concentration
acute toxicity in mice = conditions: mouse, in vivo, day 21
rhinovirus type 9 = assay: in vitro antiviral spectrum; assay type: cell-based; conditions: Enterovirus; rhinovirus type 9; read-out: Minimum inhibitory concentration
rhinovirus type 50 = assay: in vitro antiviral spectrum; assay type: cell-based; conditions: Enterovirus; rhinovirus type 50; read-out: Minimum inhibitory concentration
rhinovirus type 17 = assay: in vitro antiviral spectrum; assay type: cell-based; conditions: Enterovirus; rhinovirus type 17; read-out: Minimum inhibitory concentration
rhinovirus type 36 = assay: in vitro antiviral spectrum; assay type: cell-based; conditions: Enterovirus; rhinovirus type 36; read-out: Minimum inhibitory concentration
HeLa cell = HeLa cell growth; assay type: cell-based; conditions: 0.5 to 2 μg/ml

Compound `COc1cc(O)c2c(=O)c(OC)c(-c3ccc(O)c(OC)c3)oc2c1` [4',5-dihydroxy-3,3',7-trimethoxyflavone] has an MIC (rhinovirus type 2) of 0.1 µg/mL (≈ 0.29 µM), an MIC (rhinovirus type 16) of 0.3 µg/mL (≈ 0.871 µM) and an MIC (rhinovirus type 30) of 0.03 to 0.1 µg/mL (≈ 0.0871 to 0.29 µM). For the same compound, the MIC (rhinovirus type 55) was 0.3 µg/mL (≈ 0.871 µM), the MIC (ECHO virus type 11) was 0.1 to 0.3 µg/mL (≈ 0.29 to 0.871 µM) and the MIC (rhinovirus type 1A) was 0.03 µg/mL (≈ 0.0871 µM). For the same compound, the MIC (poliovirus type 1) was 0.1 to 0.3 µg/mL (≈ 0.29 to 0.871 µM), the MIC (rhinovirus type 53) was 0.1 µg/mL (≈ 0.29 µM) and the MIC (rhinovirus type 14) was 0.1 µg/mL (≈ 0.29 µM). The MIC (Coxsackie virus B1 [1]; Coxsackie virus B1, read-out: Minimum inhibitory concentration) was 0.1 to 0.2 µg/mL (≈ 0.29 to 0.581 µM), the IC50 (Coxsackie virus B1 [1]; HeLa, 24 h, read-out: IC50 Coxsackie virus B1) was 0.1 to 0.2 µg/mL (≈ 0.29 to 0.581 µM) and the MIC (rhinovirus type 26) was 0.3 µg/mL (≈ 0.871 µM). It also gave an MIC (rhinovirus type 3) of 0.1 µg/mL (≈ 0.29 µM), a responders at 10 mg/kg (Coxsackie virus B1 [2]; ip) of 10% and a responders at 20 mg/kg (Coxsackie virus B1 [2]; ip) of 20%. It also gave a responders at 20 mg/kg (Coxsackie virus B1 [2]; po) of 10%, a responders at 40 mg/kg (Coxsackie virus B1 [2]; po) of 30% and an MIC (ECHO virus type 9) of 0.1 to 0.3 µg/mL (≈ 0.29 to 0.871 µM). It also gave an MIC (rhinovirus type 13) of 0.3 to 1 µg/mL (≈ 0.871 to 2.9 µM), an MIC (ECHO virus type 19) of 0.1 to 0.3 µg/mL (≈ 0.29 to 0.871 µM) and an MIC (ECHO virus type 12) of 0.1 to 0.3 µg/mL (≈ 0.29 to 0.871 µM). For the same compound, the MIC (rhinovirus type 34) was 0.3 µg/mL (≈ 0.871 µM), the MIC (rhinovirus type 39) was 0.1 µg/mL (≈ 0.29 µM) and the MIC (rhinovirus type 21) was 0.3 µg/mL (≈ 0.871 µM). For the same compound, the MIC (rhinovirus type 44) was 0.05 to 0.5 µg/mL (≈ 0.145 to 1.45 µM), the IC50 (rhinovirus HGP) was 0.1 µg/mL (≈ 0.29 µM) and the MIC (rhinovirus type 47) was 0.3 µg/mL (≈ 0.871 µM). The MIC (rhinovirus type 4) was 1 µg/mL (≈ 2.9 µM), the “reduction of viral replication” value [3] was “reduces the viral replication quite considerably” and the MIC (Coxsackie virus A21) was 0.1 to 0.3 µg/mL (≈ 0.29 to 0.871 µM). The MIC (rhinovirus type 32) was 0.1 µg/mL (≈ 0.29 µM), the LD50 at 504 h (acute toxicity in mice; ip, single dose i.p., dissolved in dimethyl sulfoxide, read-out: LD50 i.p.) was > 1000 mg/kg and the LD50 at 504 h (acute toxicity in mice; po, single dose p.o., suspended in 0.5% carboxymethylcellulose, read-out: LD50 p.o.) was > 5000 mg/kg. For the same compound, the MIC (rhinovirus type 9) was 0.1 µg/mL (≈ 0.29 µM), the MIC (rhinovirus type 50) was 0.3 µg/mL (≈ 0.871 µM) and the MIC (rhinovirus type 17) was 0.3 µg/mL (≈ 0.871 µM). The MIC (rhinovirus type 36) was 0.3 µg/mL (≈ 0.871 µM) and the “effect on HeLa cell growth” value (HeLa cell) was “HeLa cell growth is not affected”.
